# Reference: US9746484B2, “Binding partners specific for vitamin D epimers in vitamin D assays” (Siemens Healthcare Diagnostics Inc., priority 2014, dated 2017)
# Where “and” joins values, the source holds several entries; their conditions need not be identical. Identical values can stand only once.
# Tested on: biotinylated monoclonal anti-25OH vitamin D antibody
# Test: LOCI 25(OH)D immunoassay, 3-epimer cross-reactivity without blocking antibody
# Assay type: binding, sheep
# Conditions: no anti-3-epimer antibody; for Avg. Cross-reactivity, No anti-3-epimer VD Ab Added: average of ten patient sera spiked with 100 ng/mL 3-epimer vitamin D3
# Method: The 25OH Vitamin D (25(OH)D) immunoassay format employed was a homogeneous competitive chemiluminescent immunoassay based on LOCI® assay technology. The assay was performed on the Siemens Dimension® EXL automated integrated clinical chemistry system (Siemens Healthcare Diagnostics Inc., Deerfield, Ill.). The assay measured the total concentration of 25(OH)D2 and/or 25(OH)D3 in serum and plasma samples. The LOCI® assay reagents included a releasing reagent, two synthetic bead reagents and a biotinylated monoclonal anti-25OH vitamin D antibody reagent. The first bead reagent (designated “Sensibeads”) was coated with streptavidin and contained a photosensitive dye. The second bead reagent (designated “Chemibeads”) was coated with a 25(OH)D3 analog and contained chemiluminescent dye. Sample was incubated with the releasing reagent to release 25(OH)D molecules including 3-epimeric compounds from vitamin D binding proteins. The reaction mixture was then incubated with biotinylated antibody to form a 25(OH)D-biotinylated antibody complex. […] Chemibeads were added to bind excess free biotinylated antibody. Sensibeads were then added to bind to the biotin portion of the biotinylated antibody. Aggregates of Chemibead-analog/antibody-biotin/streptavidin-Sensibeads were formed as a result. Illumination of the reaction mixture with light at 680 nm generates singlet oxygen from Sensibeads, which diffused into the Chemibeads and triggered a chemiluminescent reaction. The resulting chemiluminescent signal was measured at 612 nm and is inversely proportional to the concentration of total 25(OH)D in the sample.
# The effect of adding anti-3-epimer-VD antibody 8F10.1 (anti-3-epimer VD Ab) on the 3-epimer cross-reactivity for the assay is shown in Table 1. […] The 3-epimer cross-reactivity was calculated by the difference between 25(OH)D2 or 25(OH)D3 values with and without the spiked 3-epimer compound divided by the amount of added 3-epimer compound.
structure (smiles),measurement,setting,value
"C=C1CC[C@@H](O)C/C1=C/C=C1\CCC[C@]2(C)[C@@H]([C@H](C)CCCC(C)(C)O)CC[C@@H]12 [3-epimer D3, 3-epi-25-hydroxyvitamin D3]","Avg. Cross-reactivity, No anti-3-epimer VD Ab Added",,13.7%
same,"Avg. Cross-reactivity, No anti-3-epimer VD Ab Added",listed as 3-epimer vitamin D3 compound,13.7%
same,"3-epimer Cross-Reactivity, No anti-3-epimer VD Ab Added",individual patient sera (Sample ID 1-10) spiked with 100 ng/mL 3-epimer vitamin D3,17.9% (2×) and 11.9% and 12.6% and 16.1% and 10.2% and 9.1% and 10.5% and 15.3% and 15.5%
